# Assay results from article PMC9866191, “Novel 9-Benzylaminoacridine Derivatives as Dual Inhibitors of Phosphodiesterase 5 and Topoisomerase II for the Treatment of Colon Cancer” (Molecules, 2023).
# Assays:
# [1] = test system: IGROV1; assay: NCI-60 one-dose screen; assay type: cell-based; settings: Homo sapiens, IGROV-1; IGROV1, Ovarian Cancer panel; single dose 10^−5 M; read-out: Growth inhibition %
# [2] = test system: OVCAR-3; assay: NCI-60 one-dose screen; assay type: cell-based; settings: Homo sapiens; OVCAR-3, Ovarian Cancer panel; single dose 10^−5 M; read-out: Growth inhibition %
# [3] = test system: UO-31; assay: NCI-60 one-dose screen; assay type: cell-based; settings: Homo sapiens; UO-31, Renal Cancer panel; single dose 10^−5 M; read-out: Growth inhibition %
# [4] = test system: OVCAR-8; assay: NCI-60 one-dose screen; assay type: cell-based; settings: Homo sapiens; OVCAR-8, Ovarian Cancer panel; single dose 10^−5 M; read-out: Growth inhibition %
# [5] = test system: A498; assay: NCI-60 one-dose screen; assay type: cell-based; settings: Homo sapiens; A498, Renal Cancer panel; single dose 10^−5 M; read-out: Growth inhibition %
# [6] = test system: SF-539; assay: NCI-60 one-dose screen; assay type: cell-based; settings: Homo sapiens; SF-539, CNS Cancer panel; single dose 10^−5 M; read-out: Growth inhibition %
# [7] = test system: SK-OV-3; assay: NCI-60 one-dose screen; assay type: cell-based; settings: Homo sapiens; SK-OV-3, Ovarian Cancer panel; single dose 10^−5 M; read-out: Growth inhibition %
# [8] = test system: KM12; assay: NCI-60 one-dose screen; assay type: cell-based; settings: Homo sapiens; KM12, Colon Cancer panel; single dose 10^−5 M; read-out: Growth inhibition %
# [9] = test system: NCI-H226; assay: NCI-60 one-dose screen; assay type: cell-based; settings: Homo sapiens; NCI-H226, Non-small cell lung panel; single dose 10^−5 M; read-out: Growth inhibition %
# [10] = test system: NCI-H460; assay: NCI-60 one-dose screen; assay type: cell-based; settings: Homo sapiens; NCI-H460, Non-small cell lung panel; single dose 10^−5 M; read-out: Growth inhibition %
# [11] = test system: MDA-MB-435; assay: NCI-60 one-dose screen; assay type: cell-based; settings: Homo sapiens; MDA-MB-435, Melanoma panel; single dose 10^−5 M; read-out: Growth inhibition %
# [12] = test system: MOLT-4; assay: NCI-60 one-dose screen; assay type: cell-based; settings: Homo sapiens; MOLT-4, Leukemia panel; single dose 10^−5 M; read-out: Growth inhibition %
# [13] = test system: SK-MEL-28; assay: NCI-60 one-dose screen; assay type: cell-based; settings: Homo sapiens; SK-MEL-28, Melanoma panel; single dose 10^−5 M; read-out: Growth inhibition %
# [14] = test system: K-562; assay: NCI-60 one-dose screen; assay type: cell-based; settings: Homo sapiens, K562; K-562, Leukemia panel; single dose 10^−5 M; read-out: Growth inhibition %
# [15] = test system: MDA-MB-231/ATCC; assay: NCI-60 one-dose screen; assay type: cell-based; settings: Homo sapiens, Breast Cancer panel, single dose 10^−5 M, read-out: Growth inhibition %
# [16] = test system: RXF 393; assay: NCI-60 one-dose screen; assay type: cell-based; settings: Homo sapiens; RXF 393, Renal Cancer panel; single dose 10^−5 M; read-out: Growth inhibition %
# [17] = test system: OVCAR-5; assay: NCI-60 one-dose screen; assay type: cell-based; settings: Homo sapiens; OVCAR-5, Ovarian Cancer panel; single dose 10^−5 M; read-out: Growth inhibition %
# [18] = test system: HCT-15; assay: NCI-60 one-dose screen; assay type: cell-based; settings: Homo sapiens; HCT-15, Colon Cancer panel; single dose 10^−5 M; read-out: Growth inhibition %
# [19] = test system: RPMI-8226; assay: NCI-60 one-dose screen; assay type: cell-based; settings: Homo sapiens; RPMI-8226, Leukemia panel; single dose 10^−5 M; read-out: Growth inhibition %
# [20] = test system: SNB-19; assay: NCI-60 one-dose screen; assay type: cell-based; settings: Homo sapiens; SNB-19, CNS Cancer panel; single dose 10^−5 M; read-out: Growth inhibition %
# [21] = test system: TK-10; assay: NCI-60 one-dose screen; assay type: cell-based; settings: Homo sapiens; TK-10, Renal Cancer panel; single dose 10^−5 M; read-out: Growth inhibition %
# [22] = test system: SF-268; assay: NCI-60 one-dose screen; assay type: cell-based; settings: Homo sapiens; SF-268, CNS Cancer panel; single dose 10^−5 M; read-out: Growth inhibition %
# [23] = test system: HCT-116; assay: MTT cell proliferation assay, HCT-116; settings: for % Inhibition at 10 µM: 72 h MTT, means ± SD; for IC50: read-out: IC50 μM, 72 h MTT, means ± SD, three experiments
# Experimental: In the MTT assay, 96-well culture plates were used. A total of 7 × 10^4 cells per well were seeded, and test materials were added to the cells at various concentrations [47, 48]. Human cancer and non-cancer cell lines were purchased commercially from the American Type Culture Collection (ATCC). After 72 h, the cytotoxicity of the compounds and paclitaxel (as a positive control group) was detected using the MTT method (thiazolyl blue tetrazolium bromide, Sigma-M2128). Absorbance values at 570 and 620 nm (OD = OD570–OD620) were measured using an ELISA reader (Anthos Labtec Instruments, Salzburg, Austria).
# [24] = molecular target: T1, PDE5A (Homo sapiens, UniProt O76074); assay: Phosphodiesterase 5 HTRF cGMP assay; assay type: biochemical; settings: for IC50: means ± S.D. (n = 4), read-out: PDE5 IC50; for inhibition at 10 µM: read-out: PDE5 % Inhibition at 10 μM
# T1 construct: purchased BPS Bioscience, San Diego, CA, USA
# Experimental: All the synthesized acridine derivatives were tested for their in vitro ability to inhibit PDE5A at a screening dose of 10 µM.
# The enzyme activities of phosphodiesterase 5 (PDE5) were measured using an HTRF cGMP assay kit (Cisbio, Codolet, France). […] Afterward, the HTRF reagent (cGMP-d2 and anti-cGMP-cryptate) was added for 1 h at 25 °C, and PDE activity was assayed on an HTRF reader (Tecan Infinite F200 Pro).
# [25] = test system: CCRF-CEM; assay: NCI-60 one-dose screen; assay type: cell-based; settings: Homo sapiens, Leukemia panel, single dose 10^−5 M, read-out: Growth inhibition %
# [26] = test system: LOX IMVI; assay: NCI-60 one-dose screen; assay type: cell-based; settings: Homo sapiens, Melanoma panel, single dose 10^−5 M, read-out: Growth inhibition %
# [27] = test system: panel of 60 human tumor cell lines; assay: NCI 60-cell line one-dose screen (mean); assay type: cell-based; settings: mean of the 60 cell lines, single dose 10^−5 M, read-out: Mean % Growth Inhibition
# In short: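 Each cell line in the NCI DTP 60-line human tumor panel received one compound concentration, 10^−5 M. Activity is expressed as percent inhibition.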
# [28] = test system: CCD-966SK; assay: MTT cell proliferation assay, CCD-966SK; settings: CCD966SK skin fibroblast, 72 h MTT; for IC50: read-out: IC50 μM
Compound,inhibition at 10 µM [1] [%],inhibition at 10 µM [2] [%],inhibition at 10 µM [3] [%],inhibition at 10 µM [4] [%],inhibition at 10 µM [5] [%],inhibition at 10 µM [6] [%],inhibition at 10 µM [7] [%],inhibition at 10 µM [8] [%],inhibition at 10 µM [9] [%],inhibition at 10 µM [10] [%],inhibition at 10 µM [11] [%],inhibition at 10 µM [12] [%],inhibition at 10 µM [13] [%],inhibition at 10 µM [14] [%],inhibition at 10 µM [15] [%],inhibition at 10 µM [16] [%],inhibition at 10 µM [17] [%],inhibition at 10 µM [18] [%],inhibition at 10 µM [19] [%],inhibition at 10 µM [20] [%],further results
"COc1ccc2nc3ccccc3c(NCc3ccccc3)c2c1 [Compound 25, Benzyl-(2-methoxyacridin-9-yl)-amine]",83.6,59,86.2,71.8,114,88.2,55.5,63.5,65.6,93.7,66.2,92,50.3,94.2,72.2,94.1,71,86.9,131,75.8,inhibition at 10 µM [21]: 61.3%; inhibition at 10 µM [22]: 55.8%; % Inhibition at 10 µM [23]: 59.62 ± 2.66%; IC50 [23]: 7.43 ± 0.77 µM; IC50 [24]: 3.61 ± 1 µM; inhibition at 10 µM [24]: 77.2 ± 3.03%; inhibition at 10 µM [25]: 66.6%; inhibition at 10 µM [26]: 131%; inhibition at 10 µM [27]: 80%; % Inhibition at 10 µM [28]: 44.14 ± 3.80%
"COc1ccc2nc3ccccc3c(NCc3ccc(C)cc3)c2c1 [Compound 26, (2-Methoxyacridin-9-yl)-(4-methylbenzyl)-amine]",82.8,53.1,86.7,71.3,102,89.3,47.3,62.7,57.9,90,57.8,99.7,33.6,97.3,66.4,93.8,66,88.6,146,70.8,inhibition at 10 µM [21]: 53%; inhibition at 10 µM [22]: 51.6%; % Inhibition at 10 µM [23]: 38.11 ± 1.35%; IC50 [24]: 0.83 ± 0.12 µM; inhibition at 10 µM [24]: 88.1 ± 4.28%; inhibition at 10 µM [25]: 92.9%; inhibition at 10 µM [26]: 106%; inhibition at 10 µM [27]: 79.9%; % Inhibition at 10 µM [28]: 46.76 ± 3.21%
"COc1ccc2nc3ccccc3c(NCc3ccc(F)cc3)c2c1 [Compound 28, (4-Fluorobenzyl)-(2-methoxyacridin-9-yl)-amine]",91.8,68.8,108,80.5,108,96.2,62.1,71.3,70,94.5,76.1,99.5,64.7,98,83.3,119,82,95.9,143,82.3,inhibition at 10 µM [21]: 62.2%; inhibition at 10 µM [22]: 65.4%; % Inhibition at 10 µM [23]: 75.53 ± 2.52%; IC50 [23]: 2.51 ± 0.53 µM; IC50 [24]: 5.31 ± 1.27 µM; inhibition at 10 µM [24]: 64.2 ± 7.47%; inhibition at 10 µM [25]: 81.7%; inhibition at 10 µM [26]: 167%; inhibition at 10 µM [27]: 92.2%; % Inhibition at 10 µM [28]: 60.66 ± 2.63%; IC50 [28]: 4.67 ± 0.07 µM
"COc1ccc2nc3ccccc3c(NCc3ccc(Cl)cc3)c2c1 [Compound 29, (4-Chlorobenzyl)-(2-methoxyacridin-9-yl)-amine]",83.7,49,98.1,70.3,91.4,106,36,59.9,51.2,87.5,75.9,108,92.9,130,75.7,124,73.5,95,145,73.6,inhibition at 10 µM [21]: 47.1%; inhibition at 10 µM [22]: 46.5%; % Inhibition at 10 µM [23]: 28.83 ± 2.64%; IC50 [24]: 5.35 ± 1.01 µM; inhibition at 10 µM [24]: 66.1 ± 3.27%; inhibition at 10 µM [25]: 91.6%; inhibition at 10 µM [26]: 186%; inhibition at 10 µM [27]: 93.3%; % Inhibition at 10 µM [28]: 2.90 ± 2.51%
"Cc1ccc2nc3ccccc3c(NCc3ccc(Cl)cc3)c2c1 [Compound 31, (4-Chlorobenzyl)-(2-methyl-acridin-9-yl)-amine]",72.9,29.1,75.5,47.6,87,59.8,24.8,22.9,27.7,70.5,29.7,99.9,24.5,97.4,62.3,71,49.3,85.5,128,49.7,inhibition at 10 µM [21]: 17.6%; inhibition at 10 µM [22]: 20.9%; % Inhibition at 10 µM [23]: 55.53 ± 1.69%; IC50 [23]: 7.95 ± 0.65 µM; IC50 [24]: 4.78 ± 1.48 µM; inhibition at 10 µM [24]: 65.7 ± 7.48%; inhibition at 10 µM [25]: 81.8%; inhibition at 10 µM [26]: 157%; inhibition at 10 µM [27]: 66.9%; % Inhibition at 10 µM [28]: 60.02 ± 3.07%; IC50 [28]: 4.96 ± 0.62 µM
